Here are results for one compound from article PMC4883017 (Molecular pharmaceutics, 2015).

In data set [1] the test system is HIV-1ADA. The data set can be described thus: Reverse transcriptase inhibition in HIV-1 infected MDM. The format is cell-based. Particulars: total NRTI concentration 4 μg/mL, Day 10.
A short description of data set [2]: Pharmacokinetics after i.v. injection. Format: in vivo. Particulars: plasma, Balb/c mice, means ± SD.
The test system of data set [3] is HIV-1ADA. The data set can be described thus: Antiviral activity in vivo, humanized PBL-NSG mouse model of HIV-1 infection. Conditions: three i.v. injections over 15 days, Day 15. Set-up: species or system hu-PBL NSG mice.
The subject of another data set is HepG2 cells. Conditions: human, 10 days, 30 μg/mL.
For data set [4] the following is noted: cited from earlier work.

As for `Cc1cn([C@H]2C[C@H](N=[N+]=[N-])[C@@H](CO)O2)c(=O)[nH]c1=O` [AZT, Zidovudine], the “10-fold virus inhibition in the infected MDM at fixed concentration” value in the data set with HIV-1ADA [1] is listed as “achieved only after the treatment with nanodrugs”. In data set [2], the “AUC 0-τ” value was found to be 22.896 ± 0.085 µg·h/mL, the “AUC 0-∞” value is 88.404 ± 0.786 µg·h/mL and the CL was found to be 3.81 ± 0.17 mL/h. Moreover, the “Reduction of the virus level per lymphocyte (p24/CD45)” value in the data set on HIV-1ADA [3] was “three-fold reduction”. Moreover, the “Drop of the mtDNA amount” value in the data set with HepG2 cells was 60%. Moreover, in data set [4], the “Administered drug removed with urine” value was “more than 90%”.
